Laboratory results from US4444691A, “11-Cyano-prostaglandins of the F-series” (American Cyanamid Company, priority 1982, dated 1984).
Read-outs that look alike come from different tables or passages of the source.

Key:
[1] = test system: bronchospasms elicited by histamine; assay: Bronchodilator activity (Konzett assay), histamine bronchospasm; type: in vivo, guinea pigs; conditions: Cavia porcellus, iv, spasmogenic agent histamine; three logarithmic cumulative intravenous doses
Procedure: (§1) Bronchodilator activity was determined in guinea pigs against bronchospasms elicited by intravenous injections of 5-hydroxytryptamine, histamine or acetylchlorine by the Konzett procedure. (See J. Lulling, P. Licvens, F. El Sayed and J. Prignot, Arzneinittel-Forschung, 18, 995 (1968).]
(§2) In the Table which follows bronchodilator activity for representative compounds of this invention against one or more of the three spasmogenic agents is expressed as an ED50 determined from the results obtained with three logarithmic cumulative intravenous doses.

[2] = test system: ulcerogenic effects induced by indomethacin (stomach ulcers); type: in vivo, rat; conditions: indomethacin 20 mg/kg s.c.
Procedure: It is further to be noted that although prostaglandins in general are not effective when administered by oral route, the compounds of this invention are effective orally. The assay to determine the protective effect of these compounds is carried out in the following manner.
Rats were starved for 48 hours (water was given ad libitum). Indomethacin (20 mg./kg. of body weight) was administered by the subcutaneous route and one-half the dose of the test compound was administered by gavage at the same time. After three hours, the second half of the test compound was administered, also by gavage. Five hours after the administration of indomethacin the animals were decapitated and the stomachs removed. The stomachs were washed with distilled water, blotted on gauze, cut along the larger curvature, and the contents rinsed with distilled water. The stomachs were spread out, pinned on a cork and visualized under magnifying glass for ulcers. The criteria for scoring of ulcers was as previously reported. [Abdel-Galil et al. Brit. J. Pharmac. Chemotherapy 33:1-14 (1968)]. […]
1 Petechial hemorrhage of pin point ulcers
3 Many ulcers, a few large
4 Many ulcers, mainly large
Control animals treated with indomethacin but not test compound consistently give scores of about 2.5-3.5. Control animals treated with neither indomethacin not test compound give scores of about 0.5-0.8. Compounds diminishing the control ulcer score by 0.5 unit or more are considered to be active.

[3] = test system: gastric acid secretion; assay: Gastric acid secretion inhibition, modified Shay rat procedure; type: in vivo, rats (male, CFE strain); conditions: Rattus norvegicus, read-out: Percent inhibition of gastric acid secretion
Text: The novel compounds of the present invention are effective inhibitors of gastric acid secretion and of ulcer development in experimental animals, and thus are potentially valuable as agents for the control of gastric secretion and of gastric erosion and as anti-ulcer agents. Gastric acid secretion inhibitory action is usually measured by the "Shay rat" procedure ^(1,2) with some modifications as follows.
(1) Shay et al., Gastroenterology, 5, 43 (1945).
The rats (male, CFE strain) were starved for 48 hours (water was given ad libitum) to permit evacuation of stomach contents. On the morning of the experiment, under ether anesthesia, the abdominal region was shaved and a midline incision (1-11/2" ) was made with a scapel. With the help of a closed curved hemostat the duodenum was picked up. Upon getting the duodenum into view, fingers were used to pull the stomach through the opening, the stomach was then gently manipulated with fingers to rid stomach of air and residual matter which were pushed through the pylorus. Two-5 inch sutures were drawn under the pyloric-duodenal puncture. A ligature at the juncture, was formed with one of the threads. The second ligature was also formed but not tightened.
The test compound or the vehicle, usually 1 ml./100 g. body weight, were injected into the duodenum as close as possible to the first ligature. After injection the second ligature was tightened below the injection site to minimize leakage. The stomach was placed back through the opening into the abdominal cavity, the area of incision was washed with saline and the incision was closed with autoclips. (Occasionally, instead of an intraduodenal injection, animals were dosed by the oral or subcutaneous route. In the latter case, dosing was done thirty to sixty minutes before the operation.)
The abdominal cavity was exposed by cutting with scissors and the esophagus close to the stomach was clamped off with a hemostat, the stomach was removed by cutting above the hemostat (the esophagus was cut) and between the two sutures. Extraneous tissue was removed, the stomach washed with saline and blotted on gauze. A slit was carefully made in the stomach which was held over a funnel and the contents were collected in a centrifuge tube. The stomach was further cut along the outside edge and turned inside out. Two ml. H2 O were used to wash the stomach contents into the respective centrifuge tube. The combined stomach contents and wash were then centrifuged out for 10 minutes in the International Size 2 Centrifuge (setting at 30). The supernatant was collected, volume measured and recorded, 2 drops of a phenylphthalein indicator (1% in 95% ethanol) were added and the solution was titrated with 0.02 N NaOH (or with 0.04 N NaOH when large volumes of stomach contents were encountered) to pH 8.4 (because of usual coloring of the stomach contents, phenolphthalein was only used to permit visual indication that the end point was near) and the amount of acid present was calculated.
Compounds inducing inhibition of gastric acid secretion of 20% or more were considered active. In a representative operation, and merely by way of illustration, the results obtained with this assay with typical compounds of the present invention are given in Table II below.

[4] = test system: bronchospasms elicited by 5-hydroxytryptamine; assay: Bronchodilator activity (Konzett assay), 5-hydroxytryptamine bronchospasm; type: in vivo, guinea pigs; conditions: Cavia porcellus; spasmogenic agent 5-hydroxytryptamine; three logarithmic cumulative intravenous doses
Procedure: as §1, §2

[5] = test system: bronchospasms elicited by acetylcholine; assay: Bronchodilator activity (Konzett assay), acetylcholine bronchospasm; type: in vivo, guinea pigs; conditions: Cavia porcellus; spasmogenic agent acetylcholine; three logarithmic cumulative intravenous doses
Procedure: as §1, §2

[6] = test system: gastrointestinal effects; conditions: Physician's Desk Reference 1972, p. 964; cited from earlier work
[7] = test system: basal gastric acid secretion; assay: Inhibition of total acid output (basal gastric acid secretion) in the acute gastric fistula rat; type: in vivo, female Sprague-Dawley rats; conditions: Rattus norvegicus, intraduodenal
Procedure: Inhibition of basal gastric acid secretion can be determined by the following procedure.
Female Sprague-Dawley rats weighing 140-160 grams are fasted in individual cages for 18-24 hours. The rats are then lightly anesthetized with ether and their front teeth extracted to avoid destruction of the plastic cannula. A midline incision is then made and the stomach and duodenum exposed. A flanged polyvinyl tube is inserted into the fundic portion of the stomach and secured with a purse string suture line using 4-O Mersilene. The rat is then dosed by injection of the compound into the duodenum (1.0 ml. per 100 gram body weight). After dosing, the abdominal wall and skin are closed using metal wound clips. The rat is replaced in a cage containing a longitudinal slit to allow the polyvinyl tube to hang freely. An 8 ml. plastic collecting tube is attached to the flanged cannula and hangs freely below the cage. The first 30 minute sample is discarded designating this time as zero. The collecting tube is attached again and samples removed at the end of 60 and 120 minutes. These samples are referred to as "A" and "B" in the table. The hourly samples are then transferred to a 15 ml. centrifuge and centrifuged for 5-10 minutes. Total and sediment volume are then recorded with the supernatent volume being used as volume of secretion. A 1 ml. or less aliquot is then removed and placed in a 50 ml. beaker containing 10 ml. of distilled water. This sample is then titrated using 0.01 N NaPH to pH 7.0 using a Beckman zeromatic pH meter. Volume, titratable acidity (mew/L) and total acid output (ueq/hour) are recorded. Percent inhibition is determined by comparison with the appropriate control. Groups of three rats were used for preliminary testing, and groups of six rats were used for dose-response evaluations. All compounds are administered in a vehicle consisting of 0.5% methocel, 0.4% tween 80, and saline at a constant volume of 1 ml./100 gram rat. Samples are dispersed by sonification. Percent inhibition is calculated on basis of concurrent vehicle control.
In Table III which follows is given the effect on total acid output after 60 minutes and 120 minutes of intraduodenal dose, of representative compounds of this invention.

[8] = test system: ligated intestine; set-up: species or system female Sprague-Dawley rats; conditions: rat, in vivo
Procedure: It is therefore unexpected and novel that in general, the compounds of this invention are not diarrheagenic at dose levels at which they are effective gastric acid secretion inhibitors. One measure of diarrheagenic potential is the ileal ligated rat assay, a description of which follows directly.
Female Sprague-Dawley rats (Charles River Laboratories) weighing less than 100 grams are fasted in individual cages for at least 18 hours. They are then anesthetized with ether and a midline incision made. The duodenum is exposed and the test drug or control injected intraduodenally. The ilcocecal junction is then exposed and the terminal ileum is ligated using 3-0 silk thread just proximal to the junction. The incision is then closed using wound clips. Rats are placed back in individual cages without food or water for four hours. After this time the rats were sacrificed, the stomach and small intestine carefully removed, and cleaned of adherent mesentery. The removed portion of gut is then weighed to the nearest 0.1 gram. Compounds inducing diarrhea such as prostaglandins, cholera toxin, etc. produce an increase in weight of the ligated intestine. This increase from control is noted in Table IV, as change in weight in grams after standardizing weights of gut to grams/100 gram rat. An increase in intestinal weight of about 1.0 g. is considered indicative of diarrheagenic potential.
When measured by this assay at effective gastric acid secretion inhibiting doses, as determined by the acute rat fistula assay representative novel compounds of Table IV are non-diarrheagenic.

[9] = total oral dose 12.5 mg/kg, score 0-4, controls 2.5-3.0
[10] = 1 h, 60 min, read-out: % Inhibition of total acid output, after 60 minutes (A)
[11] = 2 h, 120 min, read-out: % Inhibition of total acid output, after 120 minutes (B)

Row | SMILES | Increase in weight of intestine ([8]; 10 mg/kg) | ED50 [1] | ED50 [4] | ED50 [5] | inhibition in vivo at 5 mg/kg [7, 10] | inhibition in vivo at 5 mg/kg [7, 11] | further results
1 | CCCCC[C@H](O)/C=C/[C@H]1[C@H](C)CC(=O)[C@@H]1C/C=C\CCCC(=O)O [l-11α-methyl-11-deoxyprostaglandin-E2, 11-deoxy-11α-methyl-prostaglandin E2] | – | 0.05 mg/kg | 0.0022 mg/kg | 1.19 mg/kg | – | – | Ulcer score, treated animals ([2]; total oral dose 6.25 mg/kg, score 0 (normal) to 4, controls 3.0): 2.5; Ulcer score, treated animals [2, 9]: 2.0; Ulcer score, treated animals ([2]; total oral dose 25 mg/kg, score 0-4, controls 2.7-3.9): 1.7; inhibition in vivo at 50 mg/kg ([3]; intraduodenal): 63%
2 | COc1ccc2c(c1)c(CC(=O)O)c(C)n2C(=O)c1ccc(Cl)cc1 [indomethacin, reference compound] | – | – | – | – | – | – | Ulcer score, control animals treated with indomethacin but not test compound ([2]; 5 h): 2.5-3.5; Gastrointestinal reactions [6]: occurrence and, at times, severity of gastrointestinal reactions
3 | CCCCC[C@H](O)/C=C/[C@H]1[C@H](C#N)CC(=O)[C@@H]1C/C=C\CCCC(=O)O [l-11α-cyano-11-deoxyprostaglandin-E2, l-11-deoxy-11α-cyanoprostaglandin-E2] | – | 0.0014 mg/kg | 0.0003 mg/kg | 0.0053 mg/kg | – | – | inhibition in vivo at 10 mg/kg [7, 10]: 49%; inhibition in vivo at 10 mg/kg [7, 11]: 18%
4 | CCCCC[C@H](O)/C=C/[C@H]1[C@@H](CO)CC(=O)[C@@H]1C/C=C\CCCC(=O)O [11-deoxy-11β-hydroxymethyl-prostaglandin E2] | – | 0.065 mg/kg | 0.3 mg/kg | 0.25 mg/kg | – | – | inhibition in vivo at 8 mg/kg ([3]; sc, subcutaneous, 8 mg/kg): 44%
5 | CCCCC[C@H](O)/C=C/[C@H]1C(C#N)CC(=O)[C@@H]1C/C=C\CCCC(=O)O (stereo partly drawn) [l-11α/β-cyano-11-deoxyprostaglandin-E2, 11α/β-cyano-11-deoxy-prostaglandin E2] | – | 0.0054 mg/kg | 0.036 mg/kg | 0.091 mg/kg | – | – | Ulcer score, treated animals [2, 9]: 1.2; inhibition in vivo at 25 mg/kg ([3]; intraduodenal, 25 mg/kg): 31%; inhibition in vivo at 50 mg/kg ([3]; intraduodenal): 79%

Continued, in another order:

Row | Increase in weight of intestine ([8]; 10 mg/kg) | SMILES | ED50 [1] | ED50 [4] | ED50 [5] | inhibition in vivo at 5 mg/kg [7, 10] | inhibition in vivo at 5 mg/kg [7, 11] | further results
6 | -0.36 g | C=C[C@@H]1C[C@H](O)[C@H](C/C=C\CCCC(=O)O)[C@H]1/C=C/[C@@H](O)CCCCC [l-11α-vinyl-11-deoxyprostaglandin-F2 α, 11-deoxy-11α-vinylprostaglandin F2α] | – | – | – | 53% | 67% | inhibition in vivo at 2.5 mg/kg [7, 10]: 15%; inhibition in vivo at 2.5 mg/kg [7, 11]: 37%
7 | -0.2 g | CCCCC[C@H](O)/C=C/[C@H]1[C@H](SCC)CC(=O)[C@@H]1C/C=C\CCCC(=O)O [l-11α-ethylthio-11-deoxyprostaglandin-E2, 11-deoxy-11α-ethylthioprostaglandin E2] | – | – | – | – | – | –
8 | +0.6 g. | CCCCC[C@H](O)/C=C/[C@H]1[C@H](CO)C[C@@H](O)[C@@H]1C/C=C\CCCC(=O)O [l-11-dexoy-11α-hydroxymethylprostaglandin-F2 β] | – | – | – | 49% | 49% | –
9 | +0.15 g. | CCCCC[C@@H](/C=C/[C@H]1[C@H](CO)C[C@@H](O)[C@@H]1C/C=C\CCCC(=O)OC)OC(C)=O [l-11α-hydroxymethyl-15-O--acetyl-11-deoxyprostaglandin-F2 β methyl ester] | – | – | – | 47% | 33% | –
10 | -0.02 g | CCCCC[C@H](O)/C=C/[C@H]1C(SC(C)=O)CC(=O)[C@@H]1C/C=C\CCCC(=O)O (stereo partly drawn) [l-11-acetylthio-11-deoxyprostaglandin-E2, 11-deoxy-11α/β-acetylthioprostaglandin E2] | – | – | – | – | – | inhibition in vivo at 10 mg/kg [7, 10]: 66%; inhibition in vivo at 10 mg/kg [7, 11]: 68%; Increase in weight of intestine ([8]; 20 mg/kg): -0.1 g
